# Measured values as given in ChEMBL document CHEMBL1127510, “Plant antitumor agents. 31. The calycopterones, a new class of biflavonoids with novel cytotoxicity in a diverse panel of human tumor cell lines” (J Med Chem, 1994).
# Values joined by “and” are separate entries in the source; they are usually repeats but may differ in a detail not shown here. Equal values may be shown once.
# Experiments:
# [1] = tested on: A-431; assay: In vitro cytotoxicity against epidermoid carcinoma cell line; type: functional, cell-based; conditions: Homo sapiens
# [2] = tested on: BC1 cell line; assay: In vitro cytotoxicity against breast cancer cell line; type: functional, cell-based; conditions: Homo sapiens
# [3] = tested on: Colon carcinoma cell; assay: In vitro cytotoxicity against colon cancer cell line; type: functional, cell-based; conditions: Homo sapiens
# [4] = tested on: Fibrosarcoma cell line; assay: In vitro cytotoxicity against fibrosarcoma cell line; type: functional, cell-based; conditions: Homo sapiens
# [5] = tested on: KB; assay: In vitro cytotoxicity against oral epidermoid carcinoma cell line; type: functional, cell-based; conditions: Homo sapiens
# [6] = tested on: P388; assay: In vitro cytotoxicity against murine lymphoid neoplasm cell line; type: functional, cell-based; conditions: Mus musculus
# [7] = tested on: U373 MG; assay: In vitro cytotoxicity against glioblastoma cell line; type: functional, cell-based, U-373MG ATCC; conditions: Homo sapiens
# [8] = tested on: Lung cancer cell line; assay: In vitro cytotoxicity against lung cancer cell line; type: functional, cell-based; conditions: Homo sapiens
# [9] = tested on: HT-29; assay: Compound was tested for cytotoxicity against colon adenocarcinoma; type: functional, cell-based, Homo sapiens
# [10] = tested on: SK-OV-3; assay: Compound was tested for cytotoxicity against ovarian adenocarcinoma; conditions: Homo sapiens
# [11] = tested on: SK-VLB; assay: Compound was tested for cytotoxicity against ovarian adenocarcinoma, multidrug resistant; conditions: Homo sapiens
# [12] = tested on: KB; assay: In vitro cytotoxicity against vinblastine resistant KB cell line; type: functional, cell-based; conditions: Homo sapiens
# [13] = tested on: SK-OV-3; assay: Comparison of cytotoxicity of calycopterone and flavone with doxorubicin against ovarian adenocarcinoma; type: functional, cell-based, Homo sapiens
# [14] = tested on: SK-VLB; assay: Compound was tested for cytotoxicity against ovarian adenocarcinoma, multidrug resistant; type: functional, cell-based; conditions: Homo sapiens
Structure (SMILES),EC50 [1],EC50 [2],EC50 [3],EC50 [4],EC50 [5],EC50 [6],EC50 [7],EC50 [8],"IC50 ([9]; Homo sapiens, HT-29)",IC50 [10],IC50 [11],EC50 [12],IC50 ([9]; ht-29),IC50 [13],IC50 [14]
COC1=C(OC)[C@@]2(OC)c3c(OC)c(O)c4c(c3O[C@@]23O[C@@H](c2ccccc2)CC=C3C1=O)[C@@H](OC)C[C@H](c1ccccc1)O4,0.4 µg/mL,0.4 µg/mL,0.3 µg/mL,0.4 µg/mL,0.4 µg/mL,0.2 µg/mL,0.8 µg/mL,0.7 µg/mL,,,,,,,
COc1cccc2c1C(=O)c1c(O)c3c(c(O)c1C2=O)C[C@@](O)(C(=O)CO)C[C@@H]3O[C@H]1C[C@H](N)[C@H](O)[C@H](C)O1 [DOXORUBICIN],,,,,,,,,180 nM,43 nM,> 10000 nM,,,,
COc1cc(-c2oc3cc(OC)c(OC)c(O)c3c(=O)c2OC)ccc1O [CHRYSOSPLENOL B],> 20 µg/mL,> 20 µg/mL,> 20 µg/mL,4.2 µg/mL,> 20 µg/mL,> 20 µg/mL,> 20 µg/mL,> 20 µg/mL,14200 nM,79000 nM,> 133000 nM,0.8 µg/mL,,,
COC1=C(OC)[C@@]2(OC)c3c(O)c(OC)c4c(c3O[C@@]23O[C@@H](c2ccccc2)CC=C3C1=O)[C@@H](O)C[C@H](c1ccccc1)O4,0.2 µg/mL,1.4 µg/mL,0.3 µg/mL,0.8 µg/mL,1.2 µg/mL,0.42 µg/mL,0.3 µg/mL,1.6 µg/mL,,,,8.6 µg/mL,,,
COC1=C(OC)[C@@]2(OC)c3c(O)c(OC)c4c(c3O[C@@]23O[C@@H](c2ccccc2)CC=C3C1=O)[C@@H](OC)C[C@H](c1ccccc1)O4 [CALYCOPTERONE],1 µg/mL,5.4 µg/mL,0.4 µg/mL,1.8 µg/mL,0.8 µg/mL,0.78 µg/mL,0.1 µg/mL,1.2 µg/mL,,,,9.6 µg/mL,240 nM and 930 nM,125 nM and 1000 nM,1900 nM
